Data set [1] is described as follows: Microsomal stability, human liver microsomes (predicted hepatic clearance). The note with it: predicted from in vitro microsomal stability data.
The target in another data set is GLP-1R (Homo sapiens, UniProt P43220). As to the kind of experiment: GLP-1R activation: cAMP increase in CHO cells stably expressing GLP-1R. Format: cell-based. To be noted: cAMP increase, CHO cells stably expressing GLP-1R, 10 point dose response, 30 minutes incubation; read-out: EC50.
Chain of GLP-1R (P43220 24-463): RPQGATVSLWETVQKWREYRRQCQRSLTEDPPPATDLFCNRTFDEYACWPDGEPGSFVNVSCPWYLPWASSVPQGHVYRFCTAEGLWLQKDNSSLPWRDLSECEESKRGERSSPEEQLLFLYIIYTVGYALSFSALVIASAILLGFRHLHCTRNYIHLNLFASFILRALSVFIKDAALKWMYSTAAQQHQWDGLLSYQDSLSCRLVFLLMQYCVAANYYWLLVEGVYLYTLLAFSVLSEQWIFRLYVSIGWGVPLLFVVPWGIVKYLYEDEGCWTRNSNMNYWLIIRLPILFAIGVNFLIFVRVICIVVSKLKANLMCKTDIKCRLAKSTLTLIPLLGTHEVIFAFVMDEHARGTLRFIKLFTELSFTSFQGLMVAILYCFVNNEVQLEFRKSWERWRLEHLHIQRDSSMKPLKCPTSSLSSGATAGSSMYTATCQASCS

For `N#CCC1(Cn2c(Cc3cc(F)c(-c4cccc(OCc5ccc(Cl)cc5F)n4)cc3F)nc3ccc(C(=O)O)cc32)CC1` [Example 416, 2-(4-(6-((4-chloro-2-fluorobenzyl)oxy)pyridin-2-yl)-2,5-difluorobenzyl)-1-((1-(cyanomethyl)cyclopropyl)methyl)-1H-benzo[d]imidazole-6-carboxylic acid], the “Predicted Hepatic Clearance (Pred. Cl.)” value in data set [1] is 4.17 mL/min/kg. In addition, at GLP-1R, the EC50 (usually the midpoint of the concentration-response curve) amounted to 90 pM.
With `COc1cc(C#N)ccc1COc1nccc(-c2cc(F)c(Cc3nc4ccc(C(=O)O)cc4n3CC3(CC#N)CC3)cc2F)n1` [Example 417, 2-(4-(2-((4-cyano-2-methoxybenzyl)oxy)pyrimidin-4-yl)-2,5-difluorobenzyl)-1-((1-(cyanomethyl)cyclopropyl)methyl)-1H-benzo[d]imidazole-6-carboxylic acid], in data set [1], the “Predicted Hepatic Clearance (Pred. Cl.)” value is 12.7 mL/min/kg. For the same compound, the EC50 at GLP-1R was 100 pM.
With `COCCn1c(Cc2ccc(-c3cccc(OCc4ccc(C#N)cc4F)n3)cc2C#CC(C)(C)O)nc2ccc(C(=O)O)cc21` [Example 419, 2-(4-(6-((4-cyano-2-fluorobenzyl)oxy)pyridin-2-yl)-2-(3-hydroxy-3-methylbut-1-yn-1-yl)benzyl)-1-(2-methoxyethyl)-1H-benzo[d]imidazole-6-carboxylic acid], in data set [1], the “Predicted Hepatic Clearance (Pred. Cl.)” value is 7.33 mL/min/kg. The EC50 at GLP-1R was 20700 pM.
In the case of `N#Cc1ccc(COc2nccc(-c3cc(F)c(Cc4nc5c(F)cc(C(=O)O)cc5n4C[C@@H]4CCO4)cc3F)n2)c(F)c1` [Example 420, (S)-2-(4-(2-((4-cyano-2-fluorobenzyl)oxy)pyrimidin-4-yl)-2,5-difluorobenzyl)-4-fluoro-1-(oxetan-2-ylmethyl)-1H-benzo[d]imidazole-6-carboxylic acid], the “Predicted Hepatic Clearance (Pred. Cl.)” value in data set [1] is 3.5 mL/min/kg. Besides, the EC50 at GLP-1R was 50 pM.
For `N#Cc1ccc(COc2cccc(-c3ccn(Cc4nc5ccc(C(=O)O)cc5n4CC4(n5ccnn5)CC4)c(=O)c3)n2)c(F)c1` [Example 421, 1-((1-(1H-1,2,3-triazol-1-yl)cyclopropyl)methyl)-2-((6-((4-cyano-2-fluorobenzyl)oxy)-2′-oxo-[2,4′-bipyridin]-1′(2′H)-yl)methyl)-1H-benzo[d]imidazole-6-carboxylic acid], in that order: less than 1.83 mL/min/kg and 327000 pM.
As to `N#CCC1(Cn2c(Cn3ccc(-c4cccc(OCc5ccc(C#N)cc5F)n4)cc3=O)nc3ccc(C(=O)O)cc32)CC1` [Example 422, 2-((6-((4-cyano-2-fluorobenzyl)oxy)-2′-oxo-[2,4′-bipyridin]-1′(2′H)-yl)methyl)-1-((1-(cyanomethyl)cyclopropyl)methyl)-1H-benzo[d]imidazole-6-carboxylic acid], the “Predicted Hepatic Clearance (Pred. Cl.)” value in data set [1] was 2.67 mL/min/kg. Besides, at GLP-1R, the EC50 worked out at 870 pM.
Consider `N#Cc1ccc(COc2cccc(-c3ccn(Cc4nc5ccc(C(=O)O)cc5n4C[C@@H]4CCO4)c(=O)c3)n2)c(F)c1` [Example 423, (S)-2-((6-((4-cyano-2-fluorobenzyl)oxy)-2′-oxo-[2,4′-bipyridin]-1′(2′H)-yl)methyl)-1-(oxetan-2-ylmethyl)-1H-benzo[d]imidazole-6-carboxylic acid], for which, in data set [1], the “Predicted Hepatic Clearance (Pred. Cl.)” value is less than 1.83 mL/min/kg. The EC50 at GLP-1R is 4120 pM.
Take `N#Cc1ccc(COc2cccc(-c3ccn(Cc4nc5ccc(C(=O)O)cc5n4CC4(CF)CC4)c(=O)c3)n2)c(F)c1` [Example 424, 2-((6-((4-cyano-2-fluorobenzyl)oxy)-2′-oxo-[2,4′-bipyridin]-1′(2′H)-yl)methyl)-1-((1-(fluoromethyl)cyclopropyl)methyl)-1H-benzo[d]imidazole-6-carboxylic acid]: the “Predicted Hepatic Clearance (Pred. Cl.)” value in data set [1] is 2.33 mL/min/kg. The EC50 at GLP-1R worked out at 15700 pM.
For `COCCn1c(Cc2ccc(-c3cccc(OCc4ccc(C#N)cc4F)n3)cc2CO)nc2ccc(C(=O)O)cc21` [Example 425, 2-(4-(6-((4-cyano-2-fluorobenzyl)oxy)pyiridn-2-yl)-2-(hydroxymethyl)benzyl)-1-(2-methoxyethyl)-1H-benzo[d]imidazole-6-carboxylic acid], in that order: 6.7 mL/min/kg and 4290 pM.
For the compound `COCCn1c(Cc2cc(F)c(-c3cccc(OCc4ccc(C#N)cc4F)n3)cc2F)nc2ccc(C(=O)O)cc21` [Example 426, 2-(4-(6-((4-cyano-2-fluorobenzyl)oxy)pyridin-2-yl)-2,5-difluorobenzyl)-1-(2-methoxyethyl)-1H-benzo[d]imidazole-6-carboxylic acid], the “Predicted Hepatic Clearance (Pred. Cl.)” value in data set [1] was 4.6 mL/min/kg. In addition, the EC50 on GLP-1R is 2340 pM.
As to `COc1cc(C#N)ccc1COc1cccc(-c2cc(F)c(Cc3nc4ccc(C(=O)O)cc4n3CC3(CC#N)CC3)cc2F)n1` [Example 427, 2-(4-(6-((4-cyano-2-methoxybenzyl)oxy)pyridin-2-yl)-2,5-difluorobenzyl)-1-((1-(cyanomethyl)cyclopropyl)methyl)-1H-benzo[d]imidazole-6-carboxylic acid], the “Predicted Hepatic Clearance (Pred. Cl.)” value in data set [1] was less than 1.83 mL/min/kg. Moreover, the EC50 at GLP-1R came out at 60 pM.
As to `N#CCC1(Cn2c(Cc3cc(F)c(-c4cccc(OCc5ccc(C#N)cc5F)n4)cc3F)nc3ccc(C(=O)O)cc32)CC1` [Example 428, 2-(4-(6-((4-cyano-2-fluorobenzyl)oxy)pyridin-2-yl)-2,5-difluorobenzyl)-1-((1-(cyanomethyl)cyclopropyl)methyl)-1H-benzo[d]imidazole-6-carboxylic acid], in data set [1], the “Predicted Hepatic Clearance (Pred. Cl.)” value was 8.92 mL/min/kg. In addition, the EC50 at GLP-1R was determined as 130 pM.
In the case of `N#Cc1ccc(COc2cccc(-c3cc(F)c(Cc4nc5ccc(C(=O)O)cc5n4CC4(CF)CC4)cc3F)n2)c(F)c1` [Example 429, 2-(4-(6-((4-cyano-2-fluorobenzyl)oxy)pyridin-2-yl)-2,5-difluorobenzyl)-1-((1-(fluoromethyl)cyclopropyl)methyl)-1H-benzo[d]imidazole-6-carboxylic acid], the “Predicted Hepatic Clearance (Pred. Cl.)” value in data set [1] was 3.83 mL/min/kg. The EC50 at GLP-1R was 610 pM.
For `COc1cc(C#N)ccc1COc1nccc(-c2cc(F)c(Cc3nc4ccc(C(=O)O)cc4n3CC3(CF)CC3)cc2F)n1` [Example 430, 2-(4-(2-((4-cyano-2-methoxybenzyl)oxy)pyrimidin-4-yl)-2,5-difluorobenzyl)-1-((1-(fluoromethyl)cyclopropyl)methyl)-1H-benzo[d]imidazole-6-carboxylic acid], in that order: less than 1.83 mL/min/kg and 670 pM.
For `N#Cc1ccc(COc2nccc(-c3cc(F)c(Cc4nc5ccc(C(=O)O)cc5n4CC4(CF)CC4)cc3F)n2)c(F)c1` [Example 431, 2-(4-(2-((4-cyano-2-fluorobenzyl)oxy)pyrimidin-4-yl)-2,5-difluorobenzyl)-1-((1-(fluoromethyl)cyclopropyl)methyl)-1H-benzo[d]imidazole-6-carboxylic acid], in that order: 3.83 mL/min/kg and 730 pM.
For `O=C(O)c1ccc2nc(Cc3cc(F)c(-c4cccc(OCc5ccc(Cl)cc5F)n4)cc3F)n(CC3(CF)CC3)c2c1` [Example 432, 2-(4-(6-((4-chloro-2-fluorobenzyl)oxy)pyridin-2-yl)-2,5-difluorobenzyl)-1-((1-(fluoromethyl)cyclopropyl)methyl)-1H-benzo[d]imidazole-6-carboxylic acid], in that order: less than 1.83 mL/min/kg and 2010 pM.

The values above are taken from patent US11702404B2, “GLP-1R modulating compounds” (priority 2019, dated 2023).
